In brackets after ≈: the same amount, converted by molar mass. Bounds are passed on as bounds.

The conditions of this series: buffer; pH 7.4; 200.0 µM.
Turning to `Cl.Clc1cccc2c3c([nH]c12)CCNC3`, the kinetic solubility (as a rule, solubility judged after dilution from a stock solution rather than from solid) is 25.8 µg/mL. Next, `COc1ccccc1C(=O)Nc1ccc(Br)c2cccnc12`: less than 0.4 µg/mL; `COC(=O)C1=C(N)OC2=C(C(=O)CCC2)C1c1cccnc1` (stereo not drawn): 42.7 µg/mL (≈ 142 µM); `Cn1c(=O)n(C)c2cc3[nH]cnc3cc21`: more than 30.3 µg/mL. For the molecule `CC(C)c1ccccc1NC(=O)CC1(CC(=O)O)CCCC1`, the solubility (kinetic) was more than 45.5 µg/mL. Turning to `C[C@H](NS(=O)(=O)c1ccccc1)C(=O)N1CCN(C(c2ccccc2)c2ccccc2)CC1`, the solubility (kinetic) is 16.2 µg/mL (≈ 34.9 µM).

`COc1ccc(-c2noc(CSc3nc(N)cc(=O)[nH]3)n2)cc1` showed a kinetic solubility of 7.7 µg/mL (≈ 23.2 µM).

For `Cc1ccc(-n2cnc(N)c2C(=O)c2cccc([N+](=O)[O-])c2)cc1`, the solubility (kinetic) is 16.6 µg/mL (≈ 51.5 µM). In the case of `Nc1ccc(C(=O)Nc2cccc3ncccc23)cc1` it was 37.3 µg/mL (≈ 142 µM); in that of `O=C(Nc1ccccc1)c1cccc(C(=O)Nc2ccccc2)n1`, 0.3 µg/mL (≈ 0.945 µM); in that of `NC(=O)CSc1nc2cc(S(=O)(=O)N3CCOCC3)ccc2o1`, more than 53.6 µg/mL. For the molecule `O=C(CNS(=O)(=O)c1ccc(F)cc1)N1CCCC1`, the solubility (kinetic) was more than 42.9 µg/mL. Next, `S=C(NCc1ccco1)Nc1ccc(Cl)cn1`: 4.1 µg/mL (≈ 15.3 µM); `O=C(NCCc1ccc(F)cc1)c1ccc2nccnc2c1`: 41.6 µg/mL (≈ 141 µM); `S=C(NCc1ccco1)N/N=C/c1ccncc1`: more than 39 µg/mL. For the molecule `CC(NC(=O)c1ccc(F)cc1)C(=O)NC1=NCCS1` (stereo not drawn), the solubility (kinetic) is more than 44.3 µg/mL. As to `Cc1csc(=O)n1CCC(=O)NCc1ccc(F)cc1`, the kinetic solubility is more than 44.2 µg/mL.

As for `COc1ccc(CC(=O)Nc2ccccc2-c2ccccc2)cc1OC`, the kinetic solubility turned out to be 43.9 µg/mL (≈ 126 µM).

Molecule `CC(C)[C@H](NS(=O)(=O)c1ccccc1F)C(=O)NC1CCCCC1` displayed a solubility (kinetic) of more than 53.5 µg/mL.

The molecule `COc1ccc(S(=O)(=O)Nc2cccc(S(=O)(=O)N3CCCCC3)c2)cc1` gave a kinetic solubility of 44 µg/mL (≈ 107 µM).

Regarding `CCOC(=O)/C(C#N)=C/c1c(Oc2cccc(C)c2)nc2ccccn2c1=O`, the solubility (kinetic) stood at 0.7 µg/mL (≈ 1.86 µM).

`Cc1ccc(C(=O)NCc2ccc3c(c2)OCO3)c(C)c1` had a kinetic solubility of 11.1 µg/mL (≈ 39.2 µM). Take `O=S(=O)(c1ccccc1)c1nc(-c2ccccc2)oc1N1CCOCC1`: the kinetic solubility was 1.2 µg/mL (≈ 3.24 µM).

Turning to `O=C1NNC(=O)C1c1ccccc1`, the solubility (kinetic) is more than 26.4 µg/mL.

Consider `O=C(NCCCN1CCOCC1)c1ccc(Cl)cc1[N+](=O)[O-]`, for which the kinetic solubility turned out to be 49.1 µg/mL (≈ 150 µM). In the case of `Cc1ccc(NC(=S)NCc2ccccc2)c(C)c1` it was 39.2 µg/mL (≈ 145 µM); in that of `O=C1CCCN1CCCNS(=O)(=O)c1ccc(F)c(F)c1`, more than 47.8 µg/mL; in that of `COc1cc(-c2nc3ccccn3c2N)ccc1O`, more than 38.3 µg/mL. Take `CC(=O)Oc1ccc(C(=O)N2c3ccccc3NC(=O)C2C)cc1` (stereo not drawn): the kinetic solubility was more than 48.7 µg/mL. Next, `CC1CCCCC1NC(=O)c1ccncc1` (stereo not drawn): more than 32.7 µg/mL. Molecule `Cc1ccc(CC(=O)N2CCN(C)CC2)cc1` gave a solubility (kinetic) of more than 34.8 µg/mL. Next, `CC(C)CC(=O)N1CCN(Cc2ccc(Br)cc2)CC1`: 28.1 µg/mL (≈ 82.8 µM); `Cc1ccc(C)n1-c1nccc(-c2ccco2)n1`: 23.5 µg/mL (≈ 98.2 µM). In the case of `CN(Cc1ccccc1)c1ccc(N2C(=O)CCC2=O)cc1[N+](=O)[O-]` it was 38.7 µg/mL (≈ 114 µM); in that of `Cc1cc(=O)oc2c(CN3CCCC3)c(O)c(Cl)cc12`, more than 44.1 µg/mL.

For `O=C(NC(=S)Nc1cccc2cc(O)ccc12)c1ccco1`, the solubility (kinetic) stood at 13.2 µg/mL (≈ 42.3 µM). Next, `Cc1cc(NC(=O)C2=C(O)c3ccccc3S(=O)(=O)N2C)no1`: 33.9 µg/mL (≈ 101 µM); `Cc1cccc(NC(=O)C2CC(=O)N(Cc3ccccc3)C2)n1` (stereo not drawn): more than 46.4 µg/mL.

With `CC(CC(=O)N1CCN(C(=O)c2ccccc2)CC1)c1ccccc1` (stereo not drawn), the kinetic solubility is more than 50.5 µg/mL.

Consider `O=C(c1ccncc1)N1CCN(S(=O)(=O)c2ccc(OC(F)(F)F)cc2)CC1`, for which the solubility (kinetic) is 36.6 µg/mL (≈ 88.1 µM). `OCc1c[nH]c(=S)n1CCOc1cccc(C(F)(F)F)c1`: the solubility (kinetic) turned out to be 5.5 µg/mL (≈ 17.3 µM). Consider `O=C(CN1C(=O)NC2(CCCCCCC2)C1=O)NCc1ccc(F)cc1`, for which the kinetic solubility was determined as 42.9 µg/mL (≈ 119 µM). Next, `Cc1cccc(C)c1NC(=O)CNC(=O)c1cnccn1`: more than 42.6 µg/mL. Next, `CN(C)S(=O)(=O)c1cccc(C(=O)Nc2ccccc2C(=O)NC2CC2)c1`: 47 µg/mL (≈ 121 µM). Molecule `COc1ccccc1N1CCN(C(=O)CSc2nnc(C)n2C2CC2)CC1` yielded a kinetic solubility of more than 58.1 µg/mL. `CNC(=O)c1cc(C(=O)c2ccc(Cl)cc2)c(Br)[nH]1` showed a solubility (kinetic) of 1.7 µg/mL (≈ 4.98 µM).

In turn, `CCN(CC)S(=O)(=O)c1ccc(/C=C/C(=O)OCC(=O)NC(=O)C2COc3ccccc3O2)cc1` (stereo not drawn) displayed a solubility (kinetic) of 21 µg/mL (≈ 41.8 µM). Regarding `CCOC(=O)/C(=C\c1ccccc1)NC(=O)c1ccccc1`, the solubility (kinetic) was more than 44.3 µg/mL.

As to `CN(Cc1cc2ccccc2[nH]c1=O)C(=O)COc1ccccc1`, the solubility (kinetic) was 13.8 µg/mL (≈ 42.8 µM). In the case of `Cc1ccc(CNC(=O)C2CCCN(c3cnccn3)C2)cc1` (stereo not drawn) it was more than 46.6 µg/mL; in that of `N/C(=N\OC(=O)c1ccc(F)cc1)c1ccc(Br)cc1`, 0.4 µg/mL (≈ 1.19 µM). In the case of `CC(=O)c1ccc(NC(=O)C(C)NCc2ccccc2Cl)cc1` (stereo not drawn) it was 38.3 µg/mL (≈ 116 µM). On to `Cc1cnc(NC(=O)Cc2cccs2)s1`, for which the solubility (kinetic) is more than 35.7 µg/mL. In the case of `COc1ccc(C(=O)NC2=NCCS2)c(OC)c1` it was more than 39.9 µg/mL; in that of `COc1ccc(NC(=S)Nc2ccc(N(C)C(C)=O)cc2)cc1`, more than 49.4 µg/mL.

The molecule `COCc1c(C(=O)NC2CCCCCC2)oc2ccccc12` came in with a solubility (kinetic) of 10.4 µg/mL (≈ 34.5 µM). For the molecule `CC(=O)C1=C(O)C(=O)N(c2ccc(O)cc2)C1c1ccc([N+](=O)[O-])cc1` (stereo not drawn), the solubility (kinetic) was more than 53.1 µg/mL. Next, `Cc1cc(C)cc(OCC(O)CN2CC(C)OC(C)C2)c1.Cl` (stereo not drawn): more than 49.5 µg/mL; `COc1cccc(N2CCN(C(=O)CCNS(=O)(=O)c3ccc(F)c(F)c3)CC2)c1`: 56.7 µg/mL (≈ 129 µM). `Cc1cccc(N2CCN(C(=O)c3ccc4c(c3)OCCO4)CC2)c1C`: the kinetic solubility was 15.7 µg/mL (≈ 44.5 µM). In the case of `O=C(NC1CCSc2ccccc21)c1cccc(OC(F)F)c1` (stereo not drawn) it was 4.5 µg/mL (≈ 13.4 µM).

Take `Fc1ccc(-c2csc(-c3ccc(C4SCCS4)cc3)n2)cc1F`: the solubility (kinetic) was less than 0.8 µg/mL.

Molecule `CCOC(=O)c1ccc(N=Cc2c(O)c3ccccc3oc2=O)cc1` yielded a kinetic solubility of 4.7 µg/mL (≈ 13.9 µM). Regarding `O=C(NC(=O)c1ccccc1O)c1ccc2c(c1)CCO2`, the solubility (kinetic) was more than 42.5 µg/mL. As to `O=C(CSc1nc2ccc([N+](=O)[O-])cc2s1)NCC1CCCO1` (stereo not drawn), the solubility (kinetic) was determined as 50.6 µg/mL (≈ 143 µM). Molecule `CC1CC(C)CN(C(=O)CSc2n[nH]c(N)n2)C1` (stereo not drawn) gave a kinetic solubility of more than 40.4 µg/mL. In turn, `Cc1ccc2nc(SCC(=O)c3ccc(O)cc3O)[nH]c2c1` gave a kinetic solubility of 6.4 µg/mL (≈ 20.4 µM). The molecule `CC(C)c1ccccc1NC(=S)NCc1ccncc1` showed a kinetic solubility of 41.1 µg/mL (≈ 144 µM). In the case of `COc1cc(C(=O)NCCOc2ccccc2C)cc(OC)c1OC` it was 48.8 µg/mL (≈ 141 µM); in that of `CN(C)CC(C)(C)CNCc1cc(=O)oc2ccc3ccccc3c12`, more than 50.8 µg/mL; in that of `O=[N+]([O-])c1ccccc1S(=O)(=O)N1CCCc2ccccc21`, 10.9 µg/mL (≈ 34.2 µM).

The molecule `COc1ccc(S(=O)(=O)N2CN3CCN(C3)C2)cc1OC` returned a solubility (kinetic) of more than 47 µg/mL. `Cc1cc(C(=O)Nc2ccc(Br)cc2)cs1` yielded a kinetic solubility of 0.7 µg/mL (≈ 2.36 µM). Next, `CCn1cc(S(=O)(=O)NC2CCCCC2)cn1`: more than 38.6 µg/mL; `O=C(/C=C/c1ccc(Cl)cc1)OCC(=O)c1ccc[nH]1`: 2.2 µg/mL (≈ 7.59 µM).

Regarding `NC(=O)NC(CC(=O)NCCc1ccccn1)c1ccccc1Cl` (stereo not drawn), the kinetic solubility was more than 52 µg/mL. For the molecule `CCOc1ccccc1Nc1cc(C)c2cccc(C)c2n1`, the kinetic solubility amounted to 0.5 µg/mL (≈ 1.71 µM). Next, `CC(=O)N(CN1C(=O)CCC1=O)c1ccc(Cl)c(Cl)c1`: more than 47.3 µg/mL; `Fc1ccc(OCCn2cnc(Cl)c2Cl)cc1`: 29.7 µg/mL (≈ 108 µM); `CC(=O)NCCc1nc2cc(NC(=O)c3cccs3)ccc2n1C`: more than 51.4 µg/mL. The molecule `CNC(=O)C(=O)Nc1cc2c3c(c1)C(C)C(=O)N3CCC2` (stereo not drawn) came in with a solubility (kinetic) of more than 43.1 µg/mL. In the case of `CCCCc1c(O)c2cccc3c2n(c1=O)CCC3` it was 35.2 µg/mL (≈ 137 µM); in that of `CCNc1cc(N2CCOCC2)nc(SC)n1`, more than 38.2 µg/mL; in that of `O=C(Nc1ccccc1)c1ccc(=O)n(Cc2cccc(Cl)c2)c1`, 22.1 µg/mL (≈ 65.2 µM). `CN(CC(=O)Nc1ccc(F)cc1)C(=O)CSc1nnc(Cc2ccccc2)o1`: the solubility (kinetic) was more than 62.2 µg/mL. For the molecule `CC(O)c1cccc(N=Cc2ccc3ccccc3c2O)c1` (stereo not drawn), the kinetic solubility came out at 7.5 µg/mL (≈ 25.7 µM). For the molecule `Cc1ccc(S(=O)(=O)N2CCN(CCc3ccncc3)CC2)cc1`, the kinetic solubility was more than 51.8 µg/mL. Turning to `O=C(Nc1nccs1)[C@@H]1CCCN1C(=O)c1cccs1`, the kinetic solubility turned out to be 30.6 µg/mL (≈ 99.5 µM). Next, `Cc1ccc2c(CN3CCCCC3C)cc(=O)oc2c1C.Cl` (stereo not drawn): 20.9 µg/mL; `O=C(CCNC(=O)c1ccc([N+](=O)[O-])cc1)Oc1ccc(F)c(F)c1`: more than 52.5 µg/mL; `CCCCN(CC)Cc1c(C)[nH]c2c(ccc3ccccc32)c1=O`: more than 48.4 µg/mL. For `CN(CC(=O)Nc1ccccc1Cl)C(=O)COC(=O)c1ccc(-c2ccc(O)cc2)cc1`, the solubility (kinetic) amounted to 3.2 µg/mL (≈ 7.07 µM).

Molecule `COc1cc(C(=O)NC2CC(C)(C)NC(C)(C)C2)cc(OC)c1OC` displayed a solubility (kinetic) of more than 52.6 µg/mL. In the case of `Cc1cccc(OCCSc2nc3ccccc3n2CCC(=O)O)c1` it was 53.4 µg/mL (≈ 150 µM); in that of `CN1CCN(c2ccc(NC(=O)c3ccco3)cc2Cl)CC1`, 45.3 µg/mL (≈ 142 µM); in that of `Cc1ccccc1C(=O)N1CCC(C(=O)NC2CCCC2)CC1`, 38.6 µg/mL (≈ 123 µM). Next, `COc1cccc(CNC(=O)CCc2ccc(OC)c(OC)c2)c1`: more than 49.4 µg/mL; `O=C(Nc1ccccc1)c1cccc(=O)o1`: more than 32.3 µg/mL; `CCCn1c(COc2ccccc2)nc2ccccc21`: 37.4 µg/mL (≈ 140 µM). Next, `Cc1cc(NS(=O)(=O)c2c(C)c(C)cc(C)c2C)no1`: more than 44.2 µg/mL; `COc1ccccc1NC(=O)N1CCOCC1`: more than 35.4 µg/mL. As for `O=C1CSc2ccc(C(=O)O)cc2N1`, the kinetic solubility was more than 31.4 µg/mL. Next, `Cc1ccc(NC(=O)Nc2ccon2)cc1Cl`: 4 µg/mL (≈ 15.9 µM).

These data come from PubChem BioAssay AID1996.
